Measurements: patent publication US20050215564A1, “Methods and compositions for treating hyperproliferative conditions” (priority 2002, published 2005)

What was measured:
[1] = test system: ras-transformed fibroblasts (ras 3T3 cells); assay: MTS-based cell-viability assay, control cells (FIG. 3B); conditions: for survival (viable surviving fraction): MTS assay at day 5, over the dose range examined; for effect on cell growth: singly or together
Method: Screening Assay. […] Cells were plated and attached overnight in growth media consisting of DMEM with 10% fetal bovine serum (FBS). […] Media with agents was replaced every 48 hours. At day 5 and 8, media was withdrawn and cells were fixed and stained in 0.5% crystal violet in 70% methanol. The crystal violet stained cells reveal a dense intact monolayer in media absent either agent. […] This observed synergistic effect is an important finding in the treatment of diseases characterized by hyperproliferation of cells. […] For cell-counting assays, 5×10^3 cells were plated in triplicate in 100 mm cell culture dishes and allowed to attach overnight as above in DMEM+10% FBS and treated with agents in DMEM+5% PPP. Media and agents were replaced every 48 hours. At day 5 cells were trypsinized and counted with hemacytometer.
For the MTS-based cell-viability assay, 5×10^3 cells were plated in 24 well dishes overnight in DMEM+10% FBS. […] Each condition was assayed in triplicate. Media and agents were replaced every 48 hours and viable surviving fraction estimated using the MTS assay at day 5 following treatment.

[2] = test system: chronic myeloid leukemia and gastrointestinal stromal tumours; conditions: humans; cited from earlier work
[3] = test system: simian sarcoma virus-transformed NIH/3T3 (sis 3T3) fibroblast cells; assay: Screening assay, crystal violet staining of cells in 12-well dishes (FIG. 1); type: cell-based; conditions: single agent in increasing amounts (STI-571 0-3 μM; ADW 0-1 μM), DMEM+5% PPP, crystal violet at day 5 and 8
Method: Screening Assay. […] Cells were plated and attached overnight in growth media consisting of DMEM with 10% fetal bovine serum (FBS). […] Media with agents was replaced every 48 hours. At day 5 and 8, media was withdrawn and cells were fixed and stained in 0.5% crystal violet in 70% methanol. […] For cell-counting assays, 5×10^3 cells were plated in triplicate in 100 mm cell culture dishes and allowed to attach overnight as above in DMEM+10% FBS and treated with agents in DMEM+5% PPP. Media and agents were replaced every 48 hours. At day 5 cells were trypsinized and counted with hemacytometer.

| Structure (SMILES) | survival (viable surviving fraction) [1] | effect on cell growth [1] | efficacy in treating chronic myeloid leukemia and gastrointestinal stromal tumours [2] | density of cells in the monolayer [3] |
| --- | --- | --- | --- | --- |
| Nc1ncnc2c1c(-c1cccc(OCc3ccccc3)c1)cn2[C@H]1C[C@H](CN2CCCC2)C1 [ADW, trans-5-(3-benzyloxy-phenyl)-7-(3-pyrrolidin-1-ylmethyl-cyclobutyl)-7H-pyrrolo[2,3-d]pyrimidin-4-ylamine] | decreased survival | little effect |  |  |
| Cc1ccc(NC(=O)c2ccc(CN3CCN(C)CC3)cc2)cc1Nc1nccc(-c2cccnc2)n1 [STI-571] | no effect on survival | little effect | effective | visibly depleted |
